# Data taken from patent US20160168140A1, “HETEROCYCLIC COMPOUNDS AS ANTIBIOTIC POTENTIATORS” (priority 2014, published 2016).
# Tested on: Acinetobacter baumannii (Ab23)
# Assay: MIC shift assay of antibiotics (broth microdilution)
# Format: cell-based
# Conditions: fold shift of colistin MIC, nc = no changeover or no shift
# Description: Minimum inhibitory concentration (MIC) shift assays were performed to determine if the test compounds could alter the MIC of existing antibacterial drugs (e.g., ciprofloxacin and colistin) for E. coli, Acinetobacter baumannii, Klebsiella pneumoniae, Pseudomonas aeruginosa, and Enterobacter cloacae. The MIC shift assay is based on the standard broth microdilution MIC determination protocol of Wiegand et al, Nat Protoc. 3(2):163-75 (2008), with slight modifications that allow for the screening of up to seven test compounds in a single plate.
# On the day before an assay, bacteria were grown overnight in cation-adjusted Mueller Hinton broth (CAMHB; Teknova, Hollister, Calif.) at 37° C. in an orbital shaker and sub-cultured at a 1:200 dilution the following morning. The cells were grown to OD600=0.5 to 0.8 and then diluted to OD600=0.01. From a serial dilution of each antibiotic at (50 μL of 2× concentrated stock solutions) several concentrations were added to the wells of a sterile, transparent round-bottom 96-well plate (Phenix Research Products, Candler, N.C.), and diluted cells (50 μL) were added to the plates for a starting OD600 of 0.005. […] A row of wells lacking test compound but containing the antibiotic was used to determine the MIC of that antibiotic alone. A column of wells lacking both antibiotic and test compound served as a growth control, and an additional column containing only CAMHB was included as a sterile blank control.
# The plates were incubated for 18 to 20 h at 37° C. in an orbital shaker, and the cell density (OD600) was determined the following day in a microplate reader (PolarStar Optima, BMG Labtech). The MIC shift was determined by comparing the MIC of the antibiotic alone to the MIC of the antibiotic plus test compound.
Compound,"colistin MIC shift, Ab23 at (compd concentration) (compound concentration 4 μM)",further results
CN(C)CCCNc1nc(-c2cn(Cc3ccccc3)c3c(Cl)cccc23)nc2c(Br)cccc12 [compound 569],8x,–
CN(C)CC(=O)n1nc(-c2ccc(Cl)c(Cl)c2)c2ccc(C(F)(F)F)cc21 [559b],–,"colistin MIC shift, Ab23 at (compd concentration) (compound concentration 8 μM): 8x"
Cc1cccc2c(NCCCN(C)C)nc(-c3cc(Br)c4ccccc4c3)nc12 [compound 446],8-16x,–
Cc1cccc2c(NCCCN(C)C)nc(-c3cccc(-c4ccc(Cl)c(Cl)c4)c3)nc12 [compound 468],16-32x,–
CN(C)CCCNc1nc(-c2cn(Cc3ccccc3)c3c(Cl)cccc23)nc2cc(Cl)ccc12 [compound 585],8x,–
CNCCCNc1nc(-c2cccc(-c3cccc(C(F)(F)F)c3)c2)nc2c(C)cccc12 [compound 478],4x,–
FC(F)(F)c1ccc2c(-c3ccc4ccccc4c3)n[nH]c2c1 [compound 540],–,"colistin MIC shift, Ab23 at (compd concentration) (compound concentration 2 μM): 4x"
Cc1cccc(-c2n[nH]c3cc(F)ccc23)c1 [compound 535],–,"colistin MIC shift, Ab23 at (compd concentration) (compound concentration 10 μM): 1x"
"3,3′-(propane-2,2-diyl)bis(5,6-dichloro-1H-indole) [compound 461]",64x,–
Fc1ccc2c(/C=C/c3cc(C(F)(F)F)cc(C(F)(F)F)c3)c[nH]c2c1 [compound 386],16x,–
Cc1cccc2c(NCCN(C)C)nc(-c3cc(-c4ccccc4)cc(C(F)(F)F)c3)nc12 [524f],32x,–
Cc1cccc2c(NCCCN3CCNCC3)nc(-c3cc(Br)cc(C(F)(F)F)c3)nc12 [compound 462],64x,–
CCC(N)C(=O)n1cc(/C=C/c2ccc(Cl)c(Cl)c2)c2cc(Br)ccc21 (stereo not drawn) [362d],32x,–
CC(C)(c1c[nH]c2cc(Cl)c(Cl)cc12)c1c[nH]c2cc(Cl)c(Cl)cc12 [compound 440],–,"colistin MIC shift, Ab23 at (compd concentration) (compound concentration 2 μM): ≧16x"
Cc1cccc2c(NCCCN(C)C)nc(-c3cc(F)cc(C(F)(F)F)c3)nc12 [compound 508],8x,–
Cc1c(-c2ccccc2)ccc2c(NCCCN(C)C)nc(-c3cc(-c4ccccc4)cc(C(F)(F)F)c3)nc12 [524e],4x,–
CCN(CC)CCCC(C)Nc1nc(-c2cn(Cc3ccccc3)c3c(Cl)cccc23)nc2c(Br)cccc12 (racemic) [compound 568],4x,–
Fc1ccc2c(/C=C/c3ccc(C(F)(F)F)cc3)c[nH]c2c1 [compound 387],16x,–
Fc1ccc2c(/C=C/c3ccc(C(F)(F)F)c(Cl)c3)c[nH]c2c1 [compound 393],16x,–
CCN(CC)CCCC(C)Nc1nc(-c2cn(Cc3ccccc3)c3c(Cl)cccc23)nc2c(-c3ccncc3)cccc12 (racemic) [compound 570],–,"colistin MIC shift, Ab23 at (compd concentration) (compound concentration 10 μM): 2x"

Compound,"colistin MIC shift, Ab23 at (compd concentration) (compound concentration 4 μM)",further results
CN(C)CCCNc1nc(-c2csc3ccc(Cl)cc23)nc2c(Cl)cccc12 [compound 592],32x,–
Fc1cc(-c2n[nH]c3cc(C(F)(F)F)ccc23)ccc1C(F)(F)F [compound 546],–,"colistin MIC shift, Ab23 at (compd concentration) (compound concentration 10 μM): 1x"
Cc1cccc2c(NCCCN)nc(-c3cc(Br)cc(C(F)(F)F)c3)nc12 [524a],128x,–
Fc1cc(C(F)(F)F)ccc1-c1cccc(-c2n[nH]c3cc(C(F)(F)F)ccc23)c1 [compound 531],–,"colistin MIC shift, Ab23 at (compd concentration) (compound concentration 10 μM): 4x"
CCN(CC)CCCC(C)Nc1nc(-c2cn(Cc3ccccc3)c3c(Cl)cccc23)nc2cc(Cl)ccc12 (racemic) [compound 584],8x,–
Fc1ccc(-c2n[nH]c3cc(C(F)(F)F)ccc23)cc1C(F)(F)F [compound 549],–,"colistin MIC shift, Ab23 at (compd concentration) (compound concentration 10 μM): 32x"
CN(C)CCCNc1nc(-c2cn(Cc3ccccc3)c3c(Cl)cccc23)nc2c(Cl)cccc12 [compound 567],16x,–
O=C(O)Cn1cc(/C=C/c2ccc(Cl)c(Cl)c2)c2ccc(F)cc21 [compound 416],–,"colistin MIC shift, Ab23 at (compd concentration) (compound concentration 10 μM): 4x"
CN(C)CCCn1cc(/C=C/c2ccc(Cl)c(Cl)c2)c2cc(Br)ccc21 [compound 356],16-64x,–
Cc1cccc2c(NCCCN(C)C)nc(-c3cccc(-c4cccc(C(F)(F)F)c4)c3)nc12 [compound 466],8-16x,–
Fc1ccc2c(-c3cccc(Cl)c3)n[nH]c2c1 [compound 534],–,"colistin MIC shift, Ab23 at (compd concentration) (compound concentration 10 μM): 1x"
CN(C)CCCNc1nc(/C=C/c2ccc(Br)cc2)nc2cc(Cl)ccc12 [compound 301],–,"colistin MIC shift, Ab23 at (compd concentration) (compound concentration 8 μM): 8x"
CCN(CC)CCCC(C)Nc1nc(-c2cccc(-c3cc(C(F)(F)F)ccc3F)c2)nc2c(C)cccc12 (stereo not drawn) [compound 473],16x,–
CN(C)CCCNc1nc(/C=C/c2ccc(F)c(F)c2)nc2c(C(F)(F)F)cccc12 [compound 330],2x,–
Cc1cc(-c2nc(NCCCN(C)C)c3cccc(C)c3n2)cc(C(F)(F)F)c1 [compound 507],8x,–
FC(F)(F)c1ccc2c(-c3ccc(Cl)c(Cl)c3)nn(Cc3cccc(Cl)c3)c2c1 [compound 545],–,"colistin MIC shift, Ab23 at (compd concentration) (compound concentration 10 μM): 1x"
Clc1ccc(/C=C/c2c[nH]c3cc(Cl)c(Cl)cc23)cc1Cl [compound 374],16x,–
CCN(CC)CCCC(C)Nc1nc(/C=C/c2ccc(C(=O)OC)cc2)nc2cc(Cl)ccc12 (racemic) [compound 309],–,"colistin MIC shift, Ab23 at (compd concentration) (compound concentration 10 μM): 4x"
Cc1cccc2c(NCCCN(C)C)nc(-c3cc(-c4cncnc4)cc(C(F)(F)F)c3)nc12 [524c],2x,–
CCN(CC)CCCC(C)Nc1nc(-c2cccc(-c3ccccc3)c2)nc2c(Cl)cccc12 (stereo not drawn) [compound 485],–,"colistin MIC shift, Ab23 at (compd concentration) (compound concentration 10 μM): 8x"

Compound,"colistin MIC shift, Ab23 at (compd concentration) (compound concentration 4 μM)",further results
"FC(F)(F)c1cccc(-c2ccc3[nH]ccc3c2)c1 [compound 398, 5-(3-(trifluoromethyl)phenyl)-1H-indole]",4x,–
FC(F)(F)c1ccc2c(-c3cccc(-c4cc(Cl)cc(Cl)c4)c3)n[nH]c2c1 [compound 530],–,"colistin MIC shift, Ab23 at (compd concentration) (compound concentration 10 μM): 4x"
CN(C)CCCNc1nc(/C=C/c2cc(C(F)(F)F)c(C(F)(F)F)cc2C(F)(F)F)nc2c(C(F)(F)F)cccc12 [compound 331],16x,–
Cc1ccc2nc(-c3cc(Br)cc(C(F)(F)F)c3)nc(NCCCN(C)C)c2c1 [compound 516],–,"colistin MIC shift, Ab23 at (compd concentration) (compound concentration 10 μM): 16x"
Clc1ccc2c(-c3cccc(-c4ccccc4)c3)n[nH]c2c1 [compound 526],1x,–
CCN(CC)CCCC(C)Nc1nc(-c2cn(Cc3ccccc3)c3c(Cl)cccc23)nc2c(Cl)cccc12 (racemic) [compound 566],8x,–
CN(C)CCCN(C)c1nc(/C=C/c2ccc(Cl)c(Cl)c2)nc2cc(Cl)c(Cl)cc12 [compound 327],8-16x,–
CCN(CC)CCCC(C)Nc1nc(-c2cccc(-c3cc(Cl)cc(Cl)c3)c2)nc2c(C)cccc12 (stereo not drawn) [compound 469],16x,–
CN(C)CCCNc1nc(-c2cccc(-c3cc(F)cc(C(F)(F)F)c3)c2)nc2c(Cl)cccc12 [compound 491],32x,–
Nc1cc(-c2n[nH]c3cc(C(F)(F)F)ccc23)cc(C(F)(F)F)c1 [compound 554],–,"colistin MIC shift, Ab23 at (compd concentration) (compound concentration 10 μM): 8x"
Clc1ccc2[nH]nc(-c3cccc(-c4ccc(Cl)c(Cl)c4)c3)c2c1 [compound 532],–,"colistin MIC shift, Ab23 at (compd concentration) (compound concentration 10 μM): 4x"
FC(F)(F)c1cc(-c2c[nH]c3cc(Cl)c(Cl)cc23)cc(C(F)(F)F)c1 [compound 435],–,"colistin MIC shift, Ab23 at (compd concentration) (compound concentration 10 μM): 16x"
Fc1ccc2c(/C=C/c3ccc(Cl)c(Cl)c3)c[nH]c2c1 [compound 366],16-32x,–
Cc1cccc(Cn2cc(-c3nc(NCCCN(C)C)c4cccc(C)c4n3)c3cccc(Cl)c32)c1 [compound 575],16x,–
COc1cc(-c2nc(NCCCN(C)C)c3cccc(C)c3n2)cc(C(F)(F)F)c1 [compound 504],–,"colistin MIC shift, Ab23 at (compd concentration) (compound concentration 8 μM): 16x"
FC(F)(F)c1cc(-c2c[nH]c3cc(Cl)c(Cl)cc23)ccc1Cl [compound 436],–,"colistin MIC shift, Ab23 at (compd concentration) (compound concentration 2 μM): 4x"
Cc1cccc2c(NCCCN(C)C)nc(-c3ccc4cc(Cl)c(Cl)cc4c3)nc12 [compound 444],16x,–
Cc1cccc2c(NCCCN(C)C)nc(-c3cccc(-c4ccc(C(F)(F)F)c(F)c4)c3)nc12 [compound 355],–,"colistin MIC shift, Ab23 at (compd concentration) (compound concentration 2 μM): 8-16x"
Cc1cccc2c(NCCCN(C)C)nc(-c3cccc(-c4cc(F)cc(C(F)(F)F)c4)c3)nc12 [compound 344],–,"colistin MIC shift, Ab23 at (compd concentration) (compound concentration 2 μM): 8-16x"
CN1CCN(CC(=O)n2cc(-c3ccc(Cl)c(Cl)c3)c3cc(Cl)ccc32)CC1 [362g],16x,–
